Measured values published in patent US20060167115A1, “Compositions for the preservation of timber” (priority 2003, published 2006).
Several values for one entry are separate records, joined by “and”; a condition that tells them apart may be missing. Equal entries are not always repeated. Entries after “also recorded” stand apart in the source; their conditions may differ.

Legend:
Format in all cases: cell-based
[1] = system: Coniophora puteana; assay: Biological efficacy test (EN 113), agar medium
Source text: (§1) Two fungi were used: Coniophora puteana Brown rot fungus) and Poria placenta (Brown rot fungus). The preservative used was TBBA (waterborne). Seven concentrations of the preservative was used: 3.0%, 2.0%, 1.5%, 1.0%, 0.5%, 0.05%, and 0.0% (w/w), i.e. the carrier solution in the absence of the active material. All wood blocks were of Scots pine sapwood (Pinus sylvestris) with an approximate volume of 18.75 cm^3 (50 mm×25 mm×15 mm) in accordance with European standard EN 113. • Treated test specimens: 2 (fungi)×7 (preservative concentrations)×1 (preservative)×4 (replicates)=56 test blocks • Untreated test specimens (for exposure alongside treated blocks): 2 (fungi)×7 (preservative concentrations)×1 (preservative)×4 (replicates)=56 test blocks • Untreated test specimens (virulence): 2 (fungi)×6 (replicates)=12 test blocks • Treated check test specimens: 4 (replicates)×7 (preservative concentrations)×1 (preservative)=28 test blocks
(§2) After block impregnation, according to European standard EN 113, and conditioning were completed, all the blocks were sterilized using ionizing radiation according to the conditions set out in EN 113. The incubation period for the test (length of block exposure to the chosen basidiomycete fungi) was 16 weeks.
(§3) It was noted that some waterlogging of certain test and control specimens had occurred. In keeping with the EN 113 format, weight changes for particular waterlogged specimens, when these are clearly unrepresentative of a group, were not included in the mean figures presented. In addition, weight losses of unrepresentative specimens generally, were not included in the mean figures presented.

[2] = system: Poria placenta; assay: Biological efficacy test (EN 113), agar medium
Source text: as §1, §2, §3

[3] = system: Neo-Lentinus lepideus; assay: Biological efficacy test (ASTM D1413-76), soil block medium
Method: (§4) The following fungi were tested: Neo-Lentinus lepideus (Brown rot fungus), Poria placenta (Brown rot fungus) and Gloeophyllum trabeum (Brown rot fungus). The preservative used was TBBA (waterborne). Seven concentrations of the preservative was used: 3.0%, 2.0%, 1.5%, 1.0%, 0.5%, 0.05% and 0.0% (w/w), i.e. the carrier solution in the absence of the preservative. All wood blocks were of Scots pine sapwood (Pinus sylvestris) with an approximate volume of 6.86 cm^3 (19 mm×19 mm×19 mm). All wood block specimens, where applicable, were vacuum impregnated with the preservative concentrations according to American standard ASTM D1413-76. • Treated test specimens: 3 (fungi)×7 (preservative concentrations)×1 (preservative)×8 (replicates)=168 test blocks • Untreated test specimens (control): 3 (fungi)×1 (preservative)×4 (replicates)=12 test blocks
(§5) After block treatments were completed, all the blocks were sterilized using ionizing radiation according to the conditions set out in American standard ASTM D1413-76. The incubation period for the test was 12 weeks.

[4] = system: Gloeophyllum trabeum; assay: as above
Method: as §4, §5

[5] = system: Poria placenta; assay: as above
Method: as §4, §5

[6] = system: Coniophora puteana; assay: Biological screening test (modified EN 113), wood block weight loss; settings: 7 weeks exposure
Method: (§6) The following fungi were employed in this test: Coniophora puteana (Brown rot fungus) and Poria placenta (Brown rot fungus). The following preservative was tested: TBBA (in ethanol carrier). Five concentrations of the preservative were used: 2%, 1%, 0.1%, 0.05% and 0.01% (w/w).
(§7) All wood blocks employed in the examples to follow were of Scots pine sapwood (Pinus sylvestris) with a volume of 1 cm^3 (10 mm×10 mm×10 mm). Five replicate test specimens were used for each concentration of the preservative. Six virulence control specimens for each fungus were used to establish the wood decay capability of the fungi. Other test blocks were used to establish: the virulence of the test fungi; the absence of a preserving effect of the ethanol carrier; and weight changes of test blocks for reasons other than decay • Treated test specimens: 2 (fungi)×5 (preservative concentrations)×1 (preservative)×5 (replicates)=50 test blocks • Untreated test specimens (for exposure alongside treated blocks): one for each treated block=50 test blocks • Virulence control specimens: 2 (fungi)×6 (replicates)=12 test blocks • Ethanol carrier test specimens: 2 (fungi)×5 (replicates)=10 test blocks • Treated check test specimens: 1 (preservatives)×5 (concentrations)×5 (replicates)=25
(§8) All timber specimens, where applicable, were treated with preservative (vacuum impregnation) and sterilized (ionizing radiation) prior to test, in accordance with European Standard EN 113. The incubation period for the test (length of block exposure to the chosen basidiomycete fungi) was 48 days or just under 7 weeks.
(§9) Weight changes for particular waterlogged specimens, when these are clearly unrepresentative of a group, are not included in the mean figures presented.
(§10) Tables I and II show weight losses (% of initial dry weight) of TBBA treated and untreated control test specimens after 7 weeks exposure to Coniophora puteana and Poria placenta respectively.
(§11) In the tables, “retention” refers to the quantity of preservative that enters the wood per cubic meter of treated wood. It's value is determined by weighing the block of wood before and after it is treated with preservative, taking the difference between the two weights, and dividing the difference in weight by the volume of the block.

[7] = system: Poria placenta; assay: as above; settings: 7 weeks exposure
Method: as §6, §7, §8, §9, §10, §11

[8] = TBBA waterborne 0.5% w/w, retention 3.86 kg/m^3, 12 weeks
[9] = TBBA waterborne 0.05% w/w, retention 0.38 kg/m^3, 12 weeks
[10] = TBBA 0.01% w/w in ethanol carrier, retention 0.1 kg/m^3
[11] = TBBA 0.05% w/w in ethanol carrier, retention 0.4 kg/m^3
[12] = TBBA 0.1% w/w in ethanol carrier, retention 0.7 kg/m^3

## CC(C)(c1cc(Br)c(O)c(Br)c1)c1cc(Br)c(O)c(Br)c1 [TBBA, Tetrabromobisphenol A]
[1]; TBBA waterborne 0.05% w/w, retention 0.39 kg/m^3, 16 weeks
  Corrected mean loss in mass (%): 46.82 (6.31) %
[1]; TBBA waterborne 0.5% w/w, retention 3.78 kg/m^3, 16 weeks
  Corrected mean loss in mass (%): 34.87 (13.21) %
[1]; TBBA waterborne 1.0% w/w, retention 7.30 kg/m^3, 16 weeks
  Corrected mean loss in mass (%): 37.27 (—) %
[1]; TBBA waterborne 1.5% w/w, retention 11.12 kg/m^3, 16 weeks
  Corrected mean loss in mass (%): −1.30 (1.16) %
[1]; TBBA waterborne 2.0% w/w, retention 15.24 kg/m^3, 16 weeks
  Corrected mean loss in mass (%): −6.79 (0.34) %
[1]; TBBA waterborne 3.0% w/w, retention 23.65 kg/m^3, 16 weeks
  Corrected mean loss in mass (%): −1.06 (0.69) %
[2]; TBBA waterborne 0.05% w/w, retention 0.25 kg/m^3, 16 weeks
  Corrected mean loss in mass (%): 30.94 (2.90) %
[2]; TBBA waterborne 0.5% w/w, retention 3.79 kg/m^3, 16 weeks
  Corrected mean loss in mass (%): 7.94 (19.35) %
[2]; TBBA waterborne 1.0% w/w, retention 7.71 kg/m^3, 16 weeks
  Corrected mean loss in mass (%): 6.17 (14.50) %
[2]; TBBA waterborne 1.5% w/w, retention 11.81 kg/m^3, 16 weeks
  Corrected mean loss in mass (%): −2.19 (070) %
[2]; TBBA waterborne 2.0% w/w, retention 12.84 kg/m^3, 16 weeks
  Corrected mean loss in mass (%): −6.21 (0.44) %
[2]; TBBA waterborne 3.0% w/w, retention 20.70 kg/m^3, 16 weeks
  Corrected mean loss in mass (%): −1.67 (0.22) %
[3]; TBBA waterborne 0.05% w/w, retention 0.40 kg/m^3, 12 weeks
  Corrected mean loss in mass (%): 31.44 (5.65) %
[3]; [8]
  Corrected mean loss in mass (%): 4.55 (16.26) %
[3]; TBBA waterborne 1.0% w/w, retention 7.62 kg/m^3, 12 weeks
  Corrected mean loss in mass (%): 0.36 (0.19) %
[3]; TBBA waterborne 1.5% w/w, retention 11.61 kg/m^3, 12 weeks
  Corrected mean loss in mass (%): 0.04 (0.09) %
[3]; TBBA waterborne 2.0% w/w, retention 15.51 kg/m^3, 12 weeks
  Corrected mean loss in mass (%): 0.04 (0.20) %
[3]; TBBA waterborne 3.0% w/w, retention 23.79 kg/m^3, 12 weeks
  Corrected mean loss in mass (%): 0.11 (0.38) %
[4]; [9]
  Corrected mean loss in mass (%): 42.71 (13.14) %
[4]; TBBA waterborne 0.5% w/w, retention 3.87 kg/m^3, 12 weeks
  Corrected mean loss in mass (%): 45.02 (7.20) %
[4]; TBBA waterborne 1.0% w/w, retention 7.73 kg/m^3, 12 weeks
  Corrected mean loss in mass (%): 5.52 (8.99) %
[4]; TBBA waterborne 1.5% w/w, retention 11.75 kg/m^3, 12 weeks
  Corrected mean loss in mass (%): 2.232 (4.66) %
[4]; TBBA waterborne 2.0% w/w, retention 15.62 kg/m^3, 12 weeks
  Corrected mean loss in mass (%): 0.29 (0.25) %
[4]; TBBA waterborne 3.0% w/w, retention 23.02 kg/m^3, 12 weeks
  Corrected mean loss in mass (%): 0.13 (0.26) %
[5]; [9]
  Corrected mean loss in mass (%): 31.70 (9.88) %
[5]; [8]
  Corrected mean loss in mass (%): 30.27 (5.59) %
[5]; TBBA waterborne 1.0% w/w, retention 7.81 kg/m^3, 12 weeks
  Corrected mean loss in mass (%): 9.65 (18.03) %
[5]; TBBA waterborne 1.5% w/w, retention 11.57 kg/m^3, 12 weeks
  Corrected mean loss in mass (%): −0.12 (0.28) %
[5]; TBBA waterborne 2.0% w/w, retention 15.72 kg/m^3, 12 weeks
  Corrected mean loss in mass (%): −0.29 (0.26) %
[5]; TBBA waterborne 3.0% w/w, retention 23.22 kg/m^3, 12 weeks
  Corrected mean loss in mass (%): −0.71 (0.14) %
[6]; [10]
  Corrected mean loss in mass (%): 39.71(2.2) (4) %
[6]; [11]
  Corrected mean loss in mass (%): 40.63 (7.59) (5) %
[6]; [12]
  Corrected mean loss in mass (%): 24.80 (—) (1) %
[6]; TBBA 1% w/w in ethanol carrier, retention 6.7 kg/m^3
  Corrected mean loss in mass (%): 2.39% and 2.39 (1.56) (5) %
[6]; TBBA 2% w/w in ethanol carrier, retention 14.1 kg/m^3
  Corrected mean loss in mass (%): no weight loss; also recorded: No mass loss
[7]; [10]
  Corrected mean loss in mass (%): 0.88 (0.29) (5) %
[7]; [11]
  Corrected mean loss in mass (%): 4.84 (0.32) (5) %
[7]; [12]
  Corrected mean loss in mass (%): 26.67% and 26.67(11.04) %
[7]; TBBA 1% w/w in ethanol carrier, retention 6.9 kg/m^3
  Corrected mean loss in mass (%): no weight loss; also recorded: No mass loss
[7]; TBBA 2% w/w in ethanol carrier, retention 14.2 kg/m^3
  Corrected mean loss in mass (%): no weight loss
